Reference: patent US20220251163A1 (Sinopep-Allsino Biopharmaceutical Co., Ltd., priority 2019, published 2022)

Columns and labels:
[1] = Effect on random weight of ob/ob mice after single subcutaneous injection; type: in vivo; conditions: 100 μg/kg single s.c., X ± s, n = 7
Method: The mice in each group received random blood glucose value measurement before (0 h) administration and 2, 4, 6, 10 and 24 h after administration, and then the time for measuring the random blood glucose was adjusted and prolonged to 34, 48, 58 or 72 h after administration according to the blood glucose condition of the mice in each group. Meanwhile, the random weight of the mice in each group before (0 h) administration and 24 h after administration was weighed, and then the random weight of the mice corresponding to the random blood glucose measurement condition 48 or 72 h after administration was weighed.

[2] = test system: ob/ob mice; assay: Blood glucose reducing experiment, single subcutaneous injection in ob/ob mice; type: in vivo; conditions: 100 μg/kg single s.c.; for Blood glucose at different time after administration, 0 h: 0 h (before administration); for Blood glucose at different time after administration, 0 h / Blood glucose at different time after administration, 2 h / Blood glucose at different time after administration, 4 h / Blood glucose at different time after administration, 6 h / Blood glucose at different time after administration, 10 h / Blood glucose at different time after administration, 24 h / AUC0-24 h Glu / Blood glucose at different time after administration, 34 h: X ± s, n = 7; for AUC0-24 h Glu: blood glucose curve area within 24 h; for AUC0-24 h Glu Decrease rate: versus model control group;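 for all read-outs here: random blood glucose read at each time point, decrease rate given as percentage fall versus the model control group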
Method: The mice in each group received random blood glucose value measurement before (0 h) administration and 2, 4, 6, 10 and 24 h after administration, and then the time for measuring the random blood glucose was adjusted and prolonged to 34, 48, 58 or 72 h after administration according to the blood glucose condition of the mice in each group. Meanwhile, the random weight of the mice in each group before (0 h) administration and 24 h after administration was weighed, and then the random weight of the mice corresponding to the random blood glucose measurement condition 48 or 72 h after administration was weighed. The blood glucose decrease rate, the blood glucose curve area (AUC0-24 h Glu) within 24 h after administration and the decrease rate were calculated according to the following formula.
Blood glucose decrease rate=(blood glucose in the model control group−blood glucose in the administration group)/blood glucose in the model control group×100%
BG0, BG2, BG4, BG6, BG10 and BG24 represented the blood glucose values before administration (0 h) and 2, 4, 6, 10 and 24 h after administration respectively.
AUC0-24 h Glu(mmol/Lh·r) decrease rate=(model control group AUC0-24 h Glu−administration group AUC0-24 h Glu/model control group AUC0-24 h Glu×100%
Experiments were carried out twice, at an interval of 8-10 days.

Molecule | Changes of random body weight at different time after administration, 0 h [1] [g] | Random body weight at different time after administration, 0 h [1] [g] | Changes of random body weight at different time after administration, 24 h [1] [g] | Random body weight at different time after administration, 24 h [1] [g] | Blood glucose at different time after administration, 0 h [2] [mmol/L] | Decrease rate of blood glucose at different time after administration, 2 h [2] [%] | Blood glucose at different time after administration, 2 h [2] [mmol/L] | Decrease rate of blood glucose at different time after administration, 4 h [2] [%] | Blood glucose at different time after administration, 4 h [2] [mmol/L] | Decrease rate of blood glucose at different time after administration, 6 h [2] [%] | Blood glucose at different time after administration, 6 h [2] [mmol/L] | Decrease rate of blood glucose at different time after administration, 10 h [2] [%] | Blood glucose at different time after administration, 10 h [2] [mmol/L] | Decrease rate of blood glucose at different time after administration, 24 h [2] [%] | Blood glucose at different time after administration, 24 h [2] [mmol/L] | AUC0-24 h Glu [2] [mmol·h/L] | AUC0-24 h Glu Decrease rate [2] [%] | Changes of random body weight at different time after administration, 48 h [1] [g] | Random body weight at different time after administration, 48 h [1] [g] | Decrease rate of blood glucose at different time after administration, 34 h [2] [%] | other results
CC[C@H](C)[C@H](NC(=O)[C@H](Cc1ccccc1)NC(=O)[C@H](CCC(=O)O)NC(=O)[C@H](CCCCN)NC(=O)[C@H](C)NC(=O)[C@H](C)NC(=O)[C@H](CCC(N)=O)NC(=O)CNC(=O)[C@H](CCC(=O)O)NC(=O)[C@H](CC(C)C)NC(=O)[C@H](Cc1ccc(O)cc1)NC(=O)[C@H](CO)NC(=O)[C@H](CO)NC(=O)[C@@H](NC(=O)[C@H](CC(=O)O)NC(=O)[C@H](CO)NC(=O)[C@@H](NC(=O)[C@H](Cc1ccccc1)NC(=O)[C@@H](NC(=O)CNC(=O)[C@H](CCC(=O)O)NC(=O)[C@H](C)NC(=O)[C@@H](N)Cc1c[nH]cn1)[C@@H](C)O)[C@@H](C)O)C(C)C)C(=O)N[C@@H](C)C(=O)N[C@@H](Cc1c[nH]c2ccccc12)C(=O)N[C@@H](CC(C)C)C(=O)N[C@H](C(=O)N[C@@H](CCCCN)C(=O)NCC(=O)N[C@@H](CCCNC(=N)N)C(N)=O)C(C)C [GLP-1, glucagon-like peptide-1, reference compound] | 0.0 ± 0.0 | 43.2 ± 0.7 | -0.1 ± 0.1 | 43.1 ± 0.7 | 20.30 ± 1.05 | 40.6 | 12.06 ± 1.36 | 41.9 | 11.79 ± 0.84 | 35.9 | 13.02 ± 0.86 | 30.9 | 14.03 ± 2.41 | 11.1 | 18.04 ± 0.71 | 359.61 ± 18.59 | 29.6 | – | – | – | –
CC[C@H](C)[C@H](NC(=O)[C@H](CC(C)C)NC(=O)[C@H](Cc1c[nH]c2ccccc12)NC(=O)[C@H](CCC(N)=O)NC(=O)[C@@H](NC(=O)[C@H](Cc1ccccc1)NC(=O)[C@H](C)NC(=O)[C@H](CCCCNC(=O)COCCOCCNC(=O)COCCOCCNC(=O)CC[C@H](NC(=O)CCCCCCCCCCCCCCCCC(=O)O)C(=O)O)NC(=O)[C@H](CCC(N)=O)NC(=O)[C@H](C)NC(=O)[C@@H](NC(=O)[C@H](CCCCN)NC(=O)[C@H](CC(=O)O)NC(=O)[C@H](CC(C)C)NC(=O)C1(NC(=O)[C@@H](NC(=O)[C@H](CO)NC(=O)[C@H](Cc2ccc(O)cc2)NC(=O)[C@H](CC(=O)O)NC(=O)[C@H](CO)NC(=O)[C@@H](NC(=O)[C@H](Cc2ccccc2)NC(=O)[C@@H](NC(=O)CNC(=O)[C@H](CCC(=O)O)NC(=O)C(C)(C)NC(=O)[C@@H](N)Cc2ccc(O)cc2)[C@@H](C)O)[C@@H](C)O)[C@@H](C)CC)CCC1)[C@@H](C)CC)C(C)C)C(=O)N[C@@H](C)C(=O)NCC(=O)NCC(=O)N1CCC[C@H]1C(=O)N[C@@H](CO)C(=O)N[C@@H](CO)C(=O)NCC(=O)N[C@@H](C)C(=O)N1CCC[C@H]1C(=O)N1CCC[C@H]1C(=O)N1CCC[C@H]1C(=O)N[C@@H](CO)C(N)=O [ID NO: 8] | 0.0 ± 0.0 | 43.8 ± 0.7 | -1.1 ± 0.2 | 42.7 ± 0.7 | 20.36 ± 0.87 | 48.1 | 10.56 ± 0.99 | 50.9 | 9.99 ± 0.86 | 51.7 | 9.83 ± 0.85 | 53.1 | 9.54 ± 1.12 | 41.3 | 11.95 ± 1.26 | 260.46 ± 21.31 | 49.0 | -0.6 ± 0.1 | 43.2 ± 0.7 | 29.6 | Blood glucose at different time after administration, 34 h [2]: 14.33 ± 1.43 mmol/L; Decrease rate of blood glucose at different time after administration, 48 h [2]: 15.7%
Semaglutide [reference compound] | 0.0 ± 0.0 | 43.7 ± 1.0 | -2.9 ± 0.2 | 40.7 ± 1.0 | 20.71 ± 1.14 | 56.0 | 9.12 ± 0.84 | 56.7 | 8.96 ± 1.40 | 59.8 | 8.32 ± 0.88 | 60.0 | 8.29 ± 0.86 | 59.0 | 8.49 ± 1.12 | 215.87 ± 18.67 | 57.7 | -1.9 ± 0.2 | 41.7 ± 1.0 | 56.0 | Blood glucose at different time after administration, 34 h [2]: 9.12 ± 0.83 mmol/L; Decrease rate of blood glucose at different time after administration, 48 h [2]: 13.9%
